Results published in patent publication US9475814B2, “Chiral N-acyl-5,6,7(8-substituted)-tetrahydro-[1,2,4]triazolo[4,3-a]pyrazines as selective NK-3 receptor antagonists, pharmaceutical composition, methods for use in NK-3 receptor mediated disorders and chiral synthesis thereof” (Euroscreen S.A., priority 2011, dated 2016).
Read-outs that look alike come from different tables or passages of the source.

Experiments:
[1] = system: circulating levels of luteinizing hormone (LH); assay: Castrated male rat model, circulating luteinizing hormone (LH); type: in vivo; details: single intravenous 10 mg/kg dose, castrated male Sprague-Dawley rats, 1 hour after dosing
Description: Castrated Male Rat Model to Assess the Effect of Compound of Invention on Circulating Levels of Luteinizing Hormone (LH).
In humans and rodents, castration is well-precedented to permit heightened, persistent GnRH signaling and consequent elevation of circulating LH. Thus, a castrated rat model is used to provide a broad index for measurement of LH inhibition as a marker of test compound inhibition of the GnRH signaling pathway.
Castrated adult male Sprague-Dawley (SD) rats (150-175 g) were purchased from Janvier (St Berthevin, France). […] The animals were allowed 2 weeks of postoperative recovery prior to study. Animals were handled on a daily basis. Standard diet and tap water were provided ad libitum. Animal cage litters were changed once a week. On the study day, animals were acclimated to the procedure room for a period of one hour prior to the initiation of the experiment.
Compounds of the invention were formulated as apyrogen water with 90 g/L (2-Hydroxypropyl)-β-CycloDextrin.
After basal sampling (T0) a single dose of compounds of the invention or vehicle was administrated intravenously to rats. Blood was then collected at 60 min post dosing. Blood samples were obtained via tail vein bleed, drawn into EDTA-containing tubes and centrifuged immediately. […] Serum LH levels were determined using radioimmunoassay kit from RIAZEN—Rat LH, Zentech (Liège, Belgium). […]

[2] = system: circulating levels of testosterone; assay: Gonad-intact adult male rat, circulating testosterone; type: in vivo; details: single intravenous 50 mg/kg dose, gonad-intact male Sprague-Dawley rats, over the 210 minute test period (AUC)
human NK1 receptor = human NK1 receptor (Homo sapiens (Human), UniProt P25103); assay: Human NK1 [3H] substance P binding assay (selectivity); details: read-out: NK1 Ki; CHO membranes, 2 nM [3H] substance P
human NK1 receptor, sequence (P25103 whole entry): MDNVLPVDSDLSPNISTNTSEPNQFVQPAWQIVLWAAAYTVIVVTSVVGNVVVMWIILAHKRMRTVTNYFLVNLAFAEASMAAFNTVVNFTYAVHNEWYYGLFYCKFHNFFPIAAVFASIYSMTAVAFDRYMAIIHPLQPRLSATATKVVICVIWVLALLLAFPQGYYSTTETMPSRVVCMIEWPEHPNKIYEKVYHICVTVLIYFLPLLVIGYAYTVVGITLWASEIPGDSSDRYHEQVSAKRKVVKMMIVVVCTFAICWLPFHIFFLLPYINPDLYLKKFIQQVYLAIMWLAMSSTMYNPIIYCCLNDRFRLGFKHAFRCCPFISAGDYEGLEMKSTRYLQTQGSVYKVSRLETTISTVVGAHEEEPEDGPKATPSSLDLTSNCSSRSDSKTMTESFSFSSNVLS

human NK2 receptor = human NK2 receptor (Homo sapiens (Human), UniProt P21452); assay: Human NK2 [125I]-Neurokinin A binding assay (selectivity); details: read-out: NK2 Ki; CHO membranes, 0.1 nM [125I]-Neurokinin A
human NK2 receptor, sequence (P21452 whole entry): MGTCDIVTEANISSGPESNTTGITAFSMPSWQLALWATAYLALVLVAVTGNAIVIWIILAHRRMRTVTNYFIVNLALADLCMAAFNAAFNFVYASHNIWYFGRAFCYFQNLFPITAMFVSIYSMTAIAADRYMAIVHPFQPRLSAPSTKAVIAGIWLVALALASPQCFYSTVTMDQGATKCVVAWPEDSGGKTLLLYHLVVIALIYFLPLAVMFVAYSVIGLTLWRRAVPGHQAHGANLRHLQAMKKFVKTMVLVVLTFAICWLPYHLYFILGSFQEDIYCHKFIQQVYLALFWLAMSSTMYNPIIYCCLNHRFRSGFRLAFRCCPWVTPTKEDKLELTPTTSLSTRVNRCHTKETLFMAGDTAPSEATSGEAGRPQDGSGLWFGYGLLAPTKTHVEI

hERG channel = hERG channel (Homo sapiens (Human), UniProt Q12809); assay: hERG inhibition assay (manual patch-clamp, HEK 293 cells)
hERG channel, sequence (Q12809 whole entry): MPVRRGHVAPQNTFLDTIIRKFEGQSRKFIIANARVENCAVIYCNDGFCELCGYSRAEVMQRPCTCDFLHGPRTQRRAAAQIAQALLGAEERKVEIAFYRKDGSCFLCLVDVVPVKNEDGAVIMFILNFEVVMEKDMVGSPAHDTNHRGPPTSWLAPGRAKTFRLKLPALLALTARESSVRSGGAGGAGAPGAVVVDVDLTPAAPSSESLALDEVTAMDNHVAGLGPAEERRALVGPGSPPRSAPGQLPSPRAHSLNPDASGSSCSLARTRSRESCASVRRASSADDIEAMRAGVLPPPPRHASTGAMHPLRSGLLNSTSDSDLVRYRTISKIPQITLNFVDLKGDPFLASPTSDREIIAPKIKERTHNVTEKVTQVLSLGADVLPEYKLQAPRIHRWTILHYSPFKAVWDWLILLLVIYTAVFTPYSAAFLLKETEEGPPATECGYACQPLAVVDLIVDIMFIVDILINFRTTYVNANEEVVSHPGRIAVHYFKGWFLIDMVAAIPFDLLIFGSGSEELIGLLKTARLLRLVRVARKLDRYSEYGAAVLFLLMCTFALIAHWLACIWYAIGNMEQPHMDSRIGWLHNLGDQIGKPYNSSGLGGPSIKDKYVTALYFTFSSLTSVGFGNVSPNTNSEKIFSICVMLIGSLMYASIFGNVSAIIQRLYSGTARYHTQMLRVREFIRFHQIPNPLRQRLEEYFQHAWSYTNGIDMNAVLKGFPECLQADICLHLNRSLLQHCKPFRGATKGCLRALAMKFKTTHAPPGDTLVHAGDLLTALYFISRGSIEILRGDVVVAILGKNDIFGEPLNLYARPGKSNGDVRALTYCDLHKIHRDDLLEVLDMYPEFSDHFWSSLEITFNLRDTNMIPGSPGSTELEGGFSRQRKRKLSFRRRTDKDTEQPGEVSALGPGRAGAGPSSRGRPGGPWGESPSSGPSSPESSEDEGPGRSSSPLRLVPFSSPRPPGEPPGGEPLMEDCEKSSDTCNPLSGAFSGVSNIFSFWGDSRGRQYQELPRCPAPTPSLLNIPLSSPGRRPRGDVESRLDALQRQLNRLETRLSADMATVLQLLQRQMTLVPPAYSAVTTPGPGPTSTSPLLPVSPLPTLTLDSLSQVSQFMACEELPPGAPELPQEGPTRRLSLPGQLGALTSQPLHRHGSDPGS

human NK-3 receptor [3] = biological target: T1, human NK-3 receptor (Homo sapiens (Human), UniProt P29371); assay: Aequorin functional assay with human NK-3 receptor (antagonist testing vs NKA); type: cell-based; details: inhibition of NKA (3 nM, EC80) response, CHO cells expressing human NK3 receptor and apoaequorin
T1 sequence (P29371 whole entry): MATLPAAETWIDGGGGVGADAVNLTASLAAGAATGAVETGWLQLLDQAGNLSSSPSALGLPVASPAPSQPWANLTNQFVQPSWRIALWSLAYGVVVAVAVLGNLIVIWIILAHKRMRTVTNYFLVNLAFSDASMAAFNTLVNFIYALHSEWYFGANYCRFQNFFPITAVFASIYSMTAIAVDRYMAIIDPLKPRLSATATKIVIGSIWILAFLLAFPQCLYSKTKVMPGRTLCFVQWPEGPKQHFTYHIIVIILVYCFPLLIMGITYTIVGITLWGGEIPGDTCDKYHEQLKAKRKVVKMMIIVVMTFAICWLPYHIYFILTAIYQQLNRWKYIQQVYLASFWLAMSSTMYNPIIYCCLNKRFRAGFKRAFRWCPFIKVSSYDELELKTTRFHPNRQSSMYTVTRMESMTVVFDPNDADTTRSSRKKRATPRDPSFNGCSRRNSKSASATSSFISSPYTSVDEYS

human NK-3 receptor [4] = biological target: T1, human NK-3 receptor; assay: 3H-SB222200 binding competition assay with human NK-3 receptor
Description: ^3H-SB222200 Binding Competition Assay with Human NK-3 Receptor
The membranes were incubated with 5 nM ^3H-SB222200(ARC) in a HEPES 25 mM/NaCl 0.1M/CaCl2 1 mM/MgCl2 5 Mm/BSA 0.5%/Saponin 10 μg/ml buffer at pH 7.4 and various concentrations of compounds of the invention. The amount of ^3H-SB222200 bound to the receptor was determined after filtration by the quantification of membrane associated radioactivity using the TopCount-NXT reader (Packard).

[5] = Table 6, membranes of CHO cells expressing human NK3 receptor, 5 nM 3H-SB222200, read-out: Ki
[6] = Table 7, human NK-3 receptor, read-out: NK3 Ki

Compound: Cc1nc(-c2nnc3n2CCN(C(=O)c2ccc(-c4cccs4)cc2)[C@@H]3C)cs1 [Compound 1, (R)-(8-methyl-3-(2-methylthiazol-4-yl)-5,6-dihydro-[1,2,4]triazolo[4,3-a]pyrazin-7(8H)-yl) (4-(thiophen-2-yl)phenyl)methanone]
- circulating LH levels [1]: significantly suppressed circulating LH levels
- plasma testosterone levels [2]: significantly suppressed plasma testosterone levels
- Ki (human NK1 receptor): 12700 nM
- Ki (human NK2 receptor): 14000 nM
- IC50 (hERG channel): > 30000 nM

Compound: Cc1nc(-c2nnc3n2CCN(C(=O)c2ccc(-c4cccs4)cc2)C3)cs1 [Compound 3, (3-(2-methylthiazol-4-yl)-5,6-dihydro-[1,2,4]triazolo[4,3-a]pyrazin-7(8H)-yl)(4-(thiophen-2-yl)phenyl)methanone]
- IC50 (human NK-3 receptor [3]): 83 nM
- Ki (human NK-3 receptor [4]; [5]): 83 nM
- Ki (human NK-3 receptor [4]; [6]): 83 nM
- Ki (human NK1 receptor): > 10000 nM
- Ki (human NK2 receptor): > 10000 nM
- IC50 (hERG channel): 26000 nM

Compound: Cc1nc(-c2nnc3n2CCN(C(=O)c2ccc(-c4cccs4)cc2)[C@@H]3C)co1 [Compound 11, (R)-(8-methyl-3-(2-methyloxazol-4-yl)-5,6-dihydro-[1,2,4]triazolo[4,3-a]pyrazin-7(8H)-yl)(4-(thiophen-2-yl)phenyl)methanone]
- IC50 (human NK-3 receptor [3]): 34 nM
- Ki (human NK-3 receptor [4]; [5]): 44 nM
- Ki (human NK-3 receptor [4]; [6]): 44 nM
- Ki (human NK1 receptor): > 10000 nM
- Ki (human NK2 receptor): > 10000 nM
- IC50 (hERG channel): > 30000 nM

Compound: Cc1csc(-c2nnc3n2CCN(C(=O)c2ccc(-c4cccs4)cc2)[C@@H]3C)n1 [Compound 19, (R)-(8-methyl-3-(4-methylthiazol-2-yl)-5,6-dihydro-[1,2,4]triazolo[4,3-a]pyrazin-7(8H)-yl)(4-(thiophen-2-yl)phenyl)methanone]
- IC50 (human NK-3 receptor [3]): 8 nM
- Ki (human NK-3 receptor [4]; [5]): 6 nM
- circulating LH levels [1]: significantly suppressed circulating LH levels
